Assay [1] has as its target T1, human B1R receptor (CHO K1 cells stably transfected with the human B1R gene) (Homo sapiens, UniProt P46663).
T1 construct: expressed in transfected cells; host or cells: CHO K1 cells (Chinese hamster ovary), stably transfected
T1 sequence (P46663 1-353): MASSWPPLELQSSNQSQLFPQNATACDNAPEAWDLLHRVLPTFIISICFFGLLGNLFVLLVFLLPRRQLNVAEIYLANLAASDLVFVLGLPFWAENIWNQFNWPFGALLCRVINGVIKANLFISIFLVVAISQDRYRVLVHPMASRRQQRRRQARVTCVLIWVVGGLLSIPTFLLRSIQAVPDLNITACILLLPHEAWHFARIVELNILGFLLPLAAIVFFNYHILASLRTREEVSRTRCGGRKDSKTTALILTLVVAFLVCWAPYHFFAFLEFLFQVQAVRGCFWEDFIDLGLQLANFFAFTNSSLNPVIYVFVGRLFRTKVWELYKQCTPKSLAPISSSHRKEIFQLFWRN
Kind of assay: Functional study on the bradykinin receptor 1 (B1R), Ca2+ fluorescence (Fluo-4) FLIPR/Novostar assay, hB1R cells. Type of assay: cell-based. In outline: (§1)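 Ca2+ influx (Fluo-4, peak fluorescence, λex 488/λem 540 nm) was measured in CHO K1 lines expressing rat or human B1R. After a 10 μM test-compound pre-addition scoring % activation, cells received EC80 agonist: Des-Arg9-bradykinin for rat, Lys-Des-Arg9-bradykinin for human. Antagonism was expressed as % of maximum inhibition, with IC50 from varied concentrations.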

The target in assay [2] is T2, B1R receptor of the rat (CHO K1 cells stably transfected with the B1R gene of the rat) (Rattus norvegicus, UniProt P97583).
T2 construct: expressed in transfected cells; host or cells: CHO K1 cells (Chinese hamster ovary), stably transfected
T2 sequence (P97583 1-337): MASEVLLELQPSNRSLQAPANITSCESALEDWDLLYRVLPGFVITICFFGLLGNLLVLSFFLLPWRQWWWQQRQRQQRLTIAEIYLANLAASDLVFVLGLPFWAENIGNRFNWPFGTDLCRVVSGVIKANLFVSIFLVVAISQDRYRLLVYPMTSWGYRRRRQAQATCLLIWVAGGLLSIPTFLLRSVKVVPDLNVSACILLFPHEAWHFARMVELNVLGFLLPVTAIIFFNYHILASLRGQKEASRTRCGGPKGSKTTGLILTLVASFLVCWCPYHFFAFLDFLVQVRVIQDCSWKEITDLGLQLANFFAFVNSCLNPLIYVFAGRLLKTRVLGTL
Kind of assay: Functional study on the bradykinin receptor 1 (B1R), Ca2+ fluorescence (Fluo-4) FLIPR/Novostar assay, rB1R cells. Type of assay: cell-based. As to conditions: CHO-K1, 10 μM. The method in brief: as §1

Where [3] appears, read: CHO-K1, read-out: % inhibition (human B1R) at 10 μM.
Setting [4] is: read-out: % inhibition (rat B1R) at 10 μM.
[5] abbreviates: CHO-K1, read-out: % Inhibition (h-B1R) at 10 μM.
Where [6] appears, read: read-out: % Inhibition (r-B1R) at 10 μM.

Where two headings read alike, the source gives them in different places.

A word on the inhibition: it is the change of the read-out against control, counted positive when it falls. Take `Cc1cc(N2CCC(N(C)C(=O)c3ccc4c(c3)[C@H](N(C)C(=O)c3ccccc3Cl)CC4)CC2)nc(C)n1` [Example H-149, (3R)-3-[(2-Chloro-benzoyl)-methyl-amino]-N-[1-(2,6-dimethyl-pyrimidin-4-yl)-piperidin-4-yl]-N-methyl-2,3-dihydro-1H-indene-5-carboxylic acid amide]: the inhibition at 10 µM in assay [1] (setting [3]) came out at 100%; in assay [2] (setting [4]), 101%.

As for `Cc1cccc(C)c1C(=O)NC1CCc2cc(C(=O)N(C)C3CCN(c4ccncc4)CC3)ccc21` (centres unmarked) [CC_H-66, 1-[(2,6-Dimethyl-benzoyl)amino]-N-methyl-N-(1-pyridin-4-yl-piperidin-4-yl)-2,3-dihydro-1H-indene-5-carboxylic acid amide], the figures for the inhibition at 10 µM in assay [1] (setting [5]) and in assay [2] (setting [6]) were 99% and 86%, respectively.

In the case of `CCN(C(=O)c1ccccc1Cl)[C@@H]1CCc2ccc(C(=O)N(C)C3CCN(c4cc(C)nc(C)n4)CC3)cc21` [Example H-145, (3R)-3-[(2-Chloro-benzoyl)-ethyl-amino]-N-[1-(2,6-dimethyl-pyrimidin-4-yl)-piperidin-4-yl]-N-methyl-2,3-dihydro-1H-indene-5-carboxylic acid amide], the inhibition at 10 µM is 100% in assay [1] (setting [3]) and 106% in assay [2] (setting [4]).

On to `CN(C(=O)c1ccc2c(c1)[C@H](NC(=O)C1(c3ccccc3Cl)CC1)CC2)C1CCN(c2ccncc2)CC1` [Example H-51, (3R)-3-[[1-(2-Chlorophenyl)-cyclopropanecarbonyl]amino]-N-methyl-N-(1-pyridin-4-yl-piperidin-4-yl)-2,3-dihydro-1H-indene-5-carboxylic acid amide], for which the results for the inhibition at 10 µM in assay [1] (setting [3]) and in assay [2] (setting [4]) were 99% and 105%, respectively.

For the molecule `CN(C(=O)c1ccc2c(c1)C(NC(=O)CCC1CCCC1)CCC2)C1CCN(c2ccncc2)CC1` (centres unmarked) [CC_H-06, 8-(3-Cyclopentyl-propanoylamino)-N-methyl-N-(1-pyridin-4-yl-piperidin-4-yl)-5,6,7,8-tetrahydro-naphthalene-2-carboxylic acid amide], the inhibition at 10 µM in assay [1] (setting [5]) stood at 100%; in assay [2] (setting [6]), 104%.

Turning to `CN(C(=O)c1ccc2c(c1)[C@H](NC(=O)c1ccccc1Cl)CC2)C1CCN(c2ccncc2)C1` (stereo partly drawn) [Example H-39, (3R)-3-[(2-Chloro-benzoyl)amino]-N-methyl-N-(1-pyridin-4-yl-pyrrolidin-3-yl)-2,3-dihydro-1H-indene-5-carboxylic acid amide], the inhibition at 10 µM in assay [1] (setting [3]) and in assay [2] (setting [4]) was 100% each time.

Take `Cc1cc(N2CCC(N(C)C(=O)c3ccc4c(c3)[C@H](NC(=O)c3ccccc3C)CC4)CC2)nc(C)n1` [Example H-162, (3R)-N-[1-(2,6-Dimethyl-pyrimidin-4-yl)-piperidin-4-yl]-N-methyl-3-[(2-methyl-benzoyl)amino]-2,3-dihydro-1H-indene-5-carboxylic acid amide]: the inhibition at 10 µM in assay [1] (setting [3]) amounted to 100%; in assay [2] (setting [4]), 105%.

Consider `CN(C(=O)c1ccc2c(c1)CC[C@H]2NS(=O)(=O)c1ccccc1Cl)C1CCN(c2ccncc2)CC1` [Example H-16, (1R)-1-[[(2-Chlorophenyl)sulfonyl]amino]-N-methyl-N-(1-pyridin-4-yl-piperidin-4-yl)-2,3-dihydro-1H-indene-5-carboxylic acid amide], for which the inhibition at 10 µM came to 100% in assay [1] (setting [3]) and 92% in assay [2] (setting [4]).

As for `CN(C(=O)c1ccc2c(c1)[C@H](NC(=O)c1ccccc1Cl)CC2)C1CCCN(c2ccncc2)CC1` (stereo partly drawn) [Example H-116, (3R)-3-[(2-Chloro-benzoyl)amino]-N-methyl-N-(1-pyridin-4-yl-azepan-4-yl)-2,3-dihydro-1H-indene-5-carboxylic acid amide], the figures for the inhibition at 10 µM in assay [1] (setting [3]) and in assay [2] (setting [4]) were 99% and 103%, respectively.

For the molecule `CN(C(=O)c1ccc2c(c1)C(NC(=O)CCC1CCCC1)CC2)C1CCN(c2ccncc2)CC1` (centres unmarked) [CC_H-59, 3-(3-Cyclopentyl-propanoylamino)-N-methyl-N-(1-pyridin-4-yl-piperidin-4-yl)-2,3-dihydro-1H-indene-5-carboxylic acid amide], the inhibition at 10 µM in assay [1] (setting [5]) turned out to be 99%; in assay [2] (setting [6]), 103%.

The values above are taken from US8680159B2, “Bradykinin 1 receptor modulating compounds” (Gruenenthal GmbH, priority 2010, dated 2014).
